Measured values taken from patent publication US10246453B2, “Benzenesulfonamide compounds and their use as therapeutic agents” (Xenon Pharmaceuticals Inc., priority 2016, dated 2019).
Counter-ions that a name gives are not always drawn.

Key:
NaV1.6 = NaV1.6 (Homo sapiens (Human), UniProt Q9UQD0); test: Sodium Influx Assay (Flux), NaV1.6; conditions: read-out: Flux NaV1.6 IC50; Trex HEK293 cells, ANG2 dye; arithmetic mean
NaV1.1 = NaV1.1 (Homo sapiens (Human), UniProt P35498); test: Sodium Influx Assay (Flux), NaV1.1; assay type: cell-based; conditions: Trex HEK293 cells, ANG2 dye; arithmetic mean
NaV1.5 = NaV1.5 (Homo sapiens (Human), UniProt Q14524); test: Sodium Influx Assay (Flux), NaV1.5; conditions: read-out: Flux NaV1.5 IC50; Trex HEK293 cells, ANG2 dye; arithmetic mean
Sequence of NaV1.5 (Q14524 other isoform, or with tags, fused parts or gaps): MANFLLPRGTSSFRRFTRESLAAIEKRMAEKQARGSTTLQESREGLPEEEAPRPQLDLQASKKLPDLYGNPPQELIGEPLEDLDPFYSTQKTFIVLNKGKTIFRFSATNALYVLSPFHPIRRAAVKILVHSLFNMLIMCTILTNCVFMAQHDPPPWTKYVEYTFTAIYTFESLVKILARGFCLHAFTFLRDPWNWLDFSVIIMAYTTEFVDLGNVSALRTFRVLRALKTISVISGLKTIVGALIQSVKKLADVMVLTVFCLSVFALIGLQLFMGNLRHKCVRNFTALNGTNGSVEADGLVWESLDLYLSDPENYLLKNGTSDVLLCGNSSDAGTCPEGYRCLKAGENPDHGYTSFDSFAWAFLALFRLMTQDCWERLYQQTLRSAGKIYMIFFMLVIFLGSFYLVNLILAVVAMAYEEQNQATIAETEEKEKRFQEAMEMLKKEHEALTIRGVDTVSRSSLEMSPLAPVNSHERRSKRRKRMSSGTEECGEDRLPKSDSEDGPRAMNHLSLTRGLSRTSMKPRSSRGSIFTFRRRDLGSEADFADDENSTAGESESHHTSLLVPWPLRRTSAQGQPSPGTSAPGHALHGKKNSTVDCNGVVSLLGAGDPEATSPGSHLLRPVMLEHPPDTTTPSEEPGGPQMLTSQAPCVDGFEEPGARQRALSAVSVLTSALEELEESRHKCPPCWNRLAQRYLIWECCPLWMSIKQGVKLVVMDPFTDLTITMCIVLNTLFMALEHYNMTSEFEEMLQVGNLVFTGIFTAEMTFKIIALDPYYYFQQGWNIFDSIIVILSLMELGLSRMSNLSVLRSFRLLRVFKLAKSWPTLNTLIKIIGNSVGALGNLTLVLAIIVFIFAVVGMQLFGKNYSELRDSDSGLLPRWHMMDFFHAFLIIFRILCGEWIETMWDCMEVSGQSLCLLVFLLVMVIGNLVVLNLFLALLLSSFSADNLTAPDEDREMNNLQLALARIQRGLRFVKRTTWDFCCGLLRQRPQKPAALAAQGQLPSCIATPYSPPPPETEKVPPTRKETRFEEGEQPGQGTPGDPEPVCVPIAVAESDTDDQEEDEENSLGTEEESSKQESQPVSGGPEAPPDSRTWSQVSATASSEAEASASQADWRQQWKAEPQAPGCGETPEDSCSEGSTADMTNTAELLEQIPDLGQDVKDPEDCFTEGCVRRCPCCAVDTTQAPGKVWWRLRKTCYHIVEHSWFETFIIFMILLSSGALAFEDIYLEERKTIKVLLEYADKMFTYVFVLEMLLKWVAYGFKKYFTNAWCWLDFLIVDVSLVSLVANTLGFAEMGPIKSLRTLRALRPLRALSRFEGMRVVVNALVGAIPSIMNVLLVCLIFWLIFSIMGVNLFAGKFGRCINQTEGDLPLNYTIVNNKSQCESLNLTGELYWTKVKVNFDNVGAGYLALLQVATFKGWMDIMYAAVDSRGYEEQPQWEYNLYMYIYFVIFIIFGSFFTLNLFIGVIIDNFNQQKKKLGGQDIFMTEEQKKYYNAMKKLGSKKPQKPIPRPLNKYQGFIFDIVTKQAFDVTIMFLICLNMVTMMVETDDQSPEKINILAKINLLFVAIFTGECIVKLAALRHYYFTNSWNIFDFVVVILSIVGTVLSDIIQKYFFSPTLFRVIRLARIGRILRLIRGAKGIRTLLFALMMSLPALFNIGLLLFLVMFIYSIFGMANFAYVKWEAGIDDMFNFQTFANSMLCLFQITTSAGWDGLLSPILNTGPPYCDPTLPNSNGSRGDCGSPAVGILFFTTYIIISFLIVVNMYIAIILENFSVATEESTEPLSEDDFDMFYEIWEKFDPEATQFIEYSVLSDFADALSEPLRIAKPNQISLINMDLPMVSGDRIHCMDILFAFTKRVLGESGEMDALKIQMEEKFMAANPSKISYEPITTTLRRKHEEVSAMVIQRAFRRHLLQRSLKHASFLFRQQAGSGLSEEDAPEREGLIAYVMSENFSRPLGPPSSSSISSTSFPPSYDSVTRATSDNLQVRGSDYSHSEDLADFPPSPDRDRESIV

Compound | IC50 (NaV1.6) | IC50 (NaV1.1) | IC50 (NaV1.5)
Cc1ccc(CN2CC[C@H](N(C)c3cc(F)c(S(=O)(=O)Nc4cscn4)cc3Cl)C2)o1 [Example 204, (S)-5-chloro-2-fluoro-4-(methyl(1-((5-methylfuran-2-yl)methyl)pyrrolidin-3-yl)amino)-N-(thiazol-4-yl)benzenesulfonamide] | 1780 nM | > 30 µM | > 30 µM
CN(c1cc(F)c(S(=O)(=O)Nc2cscn2)cc1Cl)[C@H]1CCN(Cc2cccc(Cl)c2F)C1 [Example 205, (S)-5-chloro-4-((1-(3-chloro-2-fluorobenzyl)pyrrolidin-3-yl)(methyl)amino)-2-fluoro-N-(thiazol-4-yl)benzenesulfonamide] | 1160 nM | 10.3 µM | 8 µM
CN(c1cc(F)c(S(=O)(=O)Nc2cscn2)cc1Cl)[C@H]1CCN(Cc2cc(F)ccc2F)C1 [Example 207, (S)-5-chloro-4-((1-(2,5-difluorobenzyl)pyrrolidin-3-yl)(methyl)amino)-2-fluoro-N-(thiazol-4-yl)benzenesulfonamide] | 1380 nM | 7.31 µM | 7.48 µM
CN(c1cc(F)c(S(=O)(=O)Nc2cscn2)cc1Cl)[C@H]1CCN(Cc2cccc(Cl)c2)C1 [Example 208, (S)-5-chloro-4-((1-(3-chlorobenzyl)pyrrolidin-3-yl)(methyl)amino)-2-fluoro-N-(thiazol-4-yl)benzenesulfonamide] | 1090 nM | 4.41 µM | 5.69 µM
CN(c1cc(F)c(S(=O)(=O)Nc2cscn2)cc1Cl)[C@H]1CCN(Cc2ccccc2O)C1 [Example 209, (S)-5-chloro-2-fluoro-4-((1-(2-hydroxybenzyl)pyrrolidin-3-yl)(methyl)amino)-N-(thiazol-4-yl)benzenesulfonamide] | 2150 nM | 20 µM | 20.2 µM
CN(c1cc(F)c(S(=O)(=O)Nc2cscn2)cc1Cl)[C@H]1CCN(Cc2ccccc2OC(F)F)C1 [Example 210, (S)-5-chloro-4-((1-(2-(difluoromethoxy)benzyl)pyrrolidin-3-yl)(methyl)amino)-2-fluoro-N-(thiazol-4-yl)benzenesulfonamide] | 1270 nM | 7.13 µM | 8.36 µM
Cc1cc(CN2CC[C@H](N(C)c3cc(F)c(S(=O)(=O)Nc4cscn4)cc3Cl)C2)ccc1F [Example 211, (S)-5-chloro-2-fluoro-4-((1-(4-fluoro-3-methylbenzyl)pyrrolidin-3-yl)(methyl)amino)-N-(thiazol-4-yl)benzenesulfonamide] | 2920 nM | 4.98 µM | 7.85 µM
CN(c1cc(F)c(S(=O)(=O)Nc2cscn2)cc1Cl)[C@H]1CCN(Cc2cccc(F)c2)C1 [Example 212, (S)-5-chloro-2-fluoro-4-((1-(3-fluorobenzyl)pyrrolidin-3-yl)(methyl)amino)-N-(thiazol-4-yl)benzenesulfonamide] | 2140 nM | 10.5 µM | 18.9 µM
CN(c1cc(F)c(S(=O)(=O)Nc2cscn2)cc1Cl)[C@H]1CCN(Cc2cccc(F)c2F)C1 [Example 213, (S)-5-chloro-4-((1-(2,3-difluorobenzyl)pyrrolidin-3-yl)(methyl)amino)-2-fluoro-N-(thiazol-4-yl)benzenesulfonamide] | 3460 nM | 16.1 µM | 12.8 µM
CN(c1cc(F)c(S(=O)(=O)Nc2cscn2)cc1Cl)[C@H]1CCN(Cc2cccc(C(F)(F)F)c2)C1 [Example 214, (S)-5-chloro-2-fluoro-4-(methyl(1-(3-(trifluoromethyl)benzyl)pyrrolidin-3-yl)amino)-N-(thiazol-4-yl)benzenesulfonamide] | 1790 nM | 2.94 µM | 5.54 µM
CN(c1cc(F)c(S(=O)(=O)Nc2cscn2)cc1Cl)[C@H]1CCN(Cc2cccs2)C1 [Example 215, (S)-5-chloro-2-fluoro-4-(methyl(1-(thiophen-2-ylmethyl)pyrrolidin-3-yl)amino)-N-(thiazol-4-yl)benzenesulfonamide] | 5200 nM | 27.5 µM | > 30 µM
Cc1ccnc(CN2CC[C@H](N(C)c3cc(F)c(S(=O)(=O)Nc4cscn4)cc3Cl)C2)c1 [Example 216, (S)-5-chloro-2-fluoro-4-(methyl(1-((4-methylpyridin-2-yl)methyl)pyrrolidin-3-yl)amino)-N-(thiazol-4-yl)benzenesulfonamide] | 3710 nM | > 30 µM | > 30 µM
CN(c1cc(F)c(S(=O)(=O)Nc2cscn2)cc1Cl)[C@H]1CCN(Cc2ccc(Br)cc2)C1 [Example 217, (S)-4-((1-(4-bromobenzyl)pyrrolidin-3-yl)(methyl)amino)-5-chloro-2-fluoro-N-(thiazol-4-yl)benzenesulfonamide] | 5640 nM | 4.57 µM | 6.7 µM
CN(c1cc(F)c(S(=O)(=O)Nc2cscn2)cc1Cl)[C@H]1CCN(Cc2ccccc2F)C1 [Example 218, (S)-5-chloro-2-fluoro-4-((1-(2-fluorobenzyl)pyrrolidin-3-yl)(methyl)amino)-N-(thiazol-4-yl)benzenesulfonamide] | 2000 nM | 13.7 µM | 14.2 µM
Cc1c(F)cccc1CN1CC[C@H](N(C)c2cc(F)c(S(=O)(=O)Nc3cscn3)cc2Cl)C1 [Example 220, (S)-5-chloro-2-fluoro-4-((1-(3-fluoro-2-methylbenzyl)pyrrolidin-3-yl)(methyl)amino)-N-(thiazol-4-yl)benzenesulfonamide] | 3690 nM | 5.84 µM | 8.19 µM
Cc1c(OC2CCN(Cc3ccccc3)CC2)cc(F)c(S(=O)(=O)Nc2nccs2)c1F [Example 223, 4-((1-benzylpiperidin-4-yl)oxy)-2,6-difluoro-3-methyl-N-(thiazol-2-yl)benzenesulfonamide 2,2,2-trifluoroacetate] | 9 nM | 2.58 µM | 23.2 µM
Cc1c(N(C)[C@H]2CCN(Cc3cccc(C(F)(F)F)n3)C2)cc(F)c(S(=O)(=O)Nc2cscn2)c1F [Example 224, (S)-2,6-difluoro-3-methyl-4-(methyl(1-((6-(trifluoromethyl)pyridin-2-yl)methyl)pyrrolidin-3-yl)amino)-N-(thiazol-4-yl)benzenesulfonamide 2,2,2-trifluoroacetate] | 24 nM | 8.89 µM | > 30 µM
C[C@H](c1ccccc1)N1CCC(Oc2ccc(S(=O)(=O)Nc3cscn3)c(F)c2Cl)CC1 [Example 227, (R)-3-chloro-2-fluoro-4-((1-(1-phenylethyl)piperidin-4-yl)oxy)-N-(thiazol-4-yl)benzenesulfonamide formate] | 855 nM | > 30 µM | > 30 µM
Cc1cc(S(=O)(=O)Nc2ccon2)c(F)cc1N(C)[C@H]1CCN(Cc2ccccc2)C1 [Example 229, (S)-4-((1-benzylpyrrolidin-3-yl)(methyl)amino)-2-fluoro-N-(isoxazol-3-yl)-5-methylbenzenesulfonamide 2,2,2-trifluoroacetate] | 1560 nM | > 30 µM | > 30 µM
CN(c1cc(F)c(S(=O)(=O)Nc2cscn2)cc1Br)[C@H]1CCN(Cc2ccccc2)C1 [Example 230, (S)-4-((1-benzylpyrrolidin-3-yl)(methyl)amino)-5-bromo-2-fluoro-N-(thiazol-4-yl)benzenesulfonamide 2,2,2-trifluoroacetate] | 967 nM | 13.1 µM | 23 µM
